Measurements taken from US20170319483A1, “METHOD FOR PRODUCING POROUS PARTICLE” (National Institute for Materials Science, priority 2014, published 2017).

Experiment: Theophylline release experiment in pH 7 phosphate buffer
Format: physicochemical
Conditions: FIG. 24
Experimental: First, the porous particles containing theophylline of Application Examples of 4-1 to 4-4 were dispersed in a phosphate buffer solution of pH 7 at 200 mg/100 mL.
Next, the solution was collected over time, filtered by a filter, and thereafter analyzed by high-performance liquid chromatography, and the concentration of theophylline in the solution was measured.

Cn1c(=O)c2[nH]cnc2n(C)c1=O [theophylline alone, theophylline]
Theophylline release / dissolution behaviour: whole amount was dissolved instantaneously
